Test [1] deals with C13. The test can be described thus: Antimigratory activity in human C13 cells at 10 uM by scratch-wound motility assay. The note with it: TDE = time-dependent effect. Type of test: functional, cell-based.
In test [2] the test system is C13. The test can be described thus: Antimigratory activity in human C13 cells after 24 hrs by scratch-wound motility assay. Format: functional, cell-based.
The subject of test [3] is C13. The test can be described thus: Antimigratory activity in human C13 cells assessed as delay in wound closure at 15 uM after 24 hrs by scratch-wound motility assay. Type of test: functional.
The species entered for test [4] is Homo sapiens. Put plainly: Selectivity ratio of Kd for GST (unknown origin) to Kd for recombinant human GST-tagged EphA2 cytoplasmic domain (560 to 976 residues) expressed in baculovirus expression system.
The target in test [5] is Ephrin type-A receptor 2 (Homo sapiens, UniProt P29317). The test can be described thus: Binding affinity to recombinant human GST-tagged EphA2 cytoplasmic domain (560 to 976 residues) expressed in baculovirus expression system by fluorescence polarization assay.
Test [6] in a line: Binding affinity to GST (unknown origin) by fluorescence polarization assay. Also noted: species or system Homo sapiens.
Test [7] addresses T1, NF-kappa-B inhibitor alpha (Homo sapiens, UniProt P25963).
T1 sequence (P25963 whole entry): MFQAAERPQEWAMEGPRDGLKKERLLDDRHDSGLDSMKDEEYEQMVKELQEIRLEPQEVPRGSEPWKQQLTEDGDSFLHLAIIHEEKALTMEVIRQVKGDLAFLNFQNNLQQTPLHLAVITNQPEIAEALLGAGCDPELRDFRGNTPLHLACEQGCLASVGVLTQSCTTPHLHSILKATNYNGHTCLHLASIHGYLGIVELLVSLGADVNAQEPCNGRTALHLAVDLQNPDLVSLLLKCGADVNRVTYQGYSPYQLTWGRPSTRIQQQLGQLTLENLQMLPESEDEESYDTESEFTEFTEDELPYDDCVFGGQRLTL
Put plainly: Binding affinity to NFKBIA (unknown origin).

Test [8] deals with RAC-alpha serine/threonine-protein kinase (Homo sapiens, UniProt P31749). The test can be described thus: Binding affinity to AKT1 (unknown origin).
Sequence of RAC-alpha serine/threonine-protein kinase (P31749 whole entry): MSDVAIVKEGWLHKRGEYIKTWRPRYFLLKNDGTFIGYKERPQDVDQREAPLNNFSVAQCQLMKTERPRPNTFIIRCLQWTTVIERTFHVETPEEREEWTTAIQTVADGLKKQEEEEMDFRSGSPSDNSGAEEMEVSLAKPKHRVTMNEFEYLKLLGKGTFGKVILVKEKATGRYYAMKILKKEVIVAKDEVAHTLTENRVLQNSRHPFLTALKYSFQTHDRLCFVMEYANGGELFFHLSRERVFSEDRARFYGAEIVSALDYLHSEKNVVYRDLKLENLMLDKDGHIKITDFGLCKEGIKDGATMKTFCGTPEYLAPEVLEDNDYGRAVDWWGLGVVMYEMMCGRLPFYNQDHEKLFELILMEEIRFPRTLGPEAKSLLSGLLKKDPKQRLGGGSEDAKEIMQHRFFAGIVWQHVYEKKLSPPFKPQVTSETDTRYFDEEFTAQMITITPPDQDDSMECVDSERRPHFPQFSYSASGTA

Sequence of Ephrin type-A receptor 2 (P29317 whole entry, the tested form may be a part): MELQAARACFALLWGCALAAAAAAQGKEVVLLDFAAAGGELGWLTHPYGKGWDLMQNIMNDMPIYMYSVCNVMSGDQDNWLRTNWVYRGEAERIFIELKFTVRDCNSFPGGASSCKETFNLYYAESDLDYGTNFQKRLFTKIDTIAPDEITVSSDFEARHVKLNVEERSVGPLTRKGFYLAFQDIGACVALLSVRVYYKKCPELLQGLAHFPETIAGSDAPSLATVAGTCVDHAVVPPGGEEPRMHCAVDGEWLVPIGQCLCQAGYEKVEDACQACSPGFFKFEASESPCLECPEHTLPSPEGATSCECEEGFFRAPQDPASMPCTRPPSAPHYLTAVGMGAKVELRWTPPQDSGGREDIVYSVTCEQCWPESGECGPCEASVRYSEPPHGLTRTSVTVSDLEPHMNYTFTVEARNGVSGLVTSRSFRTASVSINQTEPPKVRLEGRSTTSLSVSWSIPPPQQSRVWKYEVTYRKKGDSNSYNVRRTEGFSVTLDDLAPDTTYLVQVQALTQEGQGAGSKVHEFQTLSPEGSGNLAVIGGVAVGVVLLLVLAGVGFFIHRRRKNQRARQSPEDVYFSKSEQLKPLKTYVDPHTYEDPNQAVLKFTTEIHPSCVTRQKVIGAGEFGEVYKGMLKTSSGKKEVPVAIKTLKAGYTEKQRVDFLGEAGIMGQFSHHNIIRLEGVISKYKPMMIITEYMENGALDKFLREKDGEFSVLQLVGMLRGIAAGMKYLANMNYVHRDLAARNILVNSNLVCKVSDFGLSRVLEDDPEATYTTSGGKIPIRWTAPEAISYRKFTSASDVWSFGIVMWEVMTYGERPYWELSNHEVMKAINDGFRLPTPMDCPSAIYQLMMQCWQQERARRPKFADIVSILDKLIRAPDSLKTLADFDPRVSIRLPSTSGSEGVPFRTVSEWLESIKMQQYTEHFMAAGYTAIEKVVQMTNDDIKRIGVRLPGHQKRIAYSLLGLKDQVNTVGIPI

Consider `NC(=O)CN1C[C@H](Cc2ccccc2)NC(=O)CN(C(=O)CCC(=O)O)C[C@H](CCC(=O)O)NC(=O)CN(C(=O)Cc2ccc3c(c2)OCO3)C[C@H](CCC(=O)O)NC(=O)CN(C(=O)CCC2CCCCC2)C[C@H](Cc2ccccc2)NC(=O)c2ccc(cc2)CSCCC1=O`, for which the Activity result in test [1] is “Tde”; in test [2], “Dose-dependent effect”; in test [3], 70%.

As for `NC(=O)[C@H](CCCCNC(=S)Nc1ccc(-c2c3ccc(=O)cc-3oc3cc(O)ccc23)c(C(=O)O)c1)NC(=O)CN1C[C@H](Cc2ccccc2)NC(=O)CN(C(=O)CCC(=O)O)C[C@H](CCC(=O)O)NC(=O)CN(C(=O)Cc2ccc3c(c2)OCO3)C[C@H](CCC(=O)O)NC(=O)CN(C(=O)CCC2CCCCC2)C[C@H](Cc2ccccc2)NC(=O)c2ccc(cc2)CSCCC1=O`, the Selectivity ratio in test [4] worked out at 170. Also, the Kd came out at 81 nM in test [5], 14200 nM in test [6], 741 nM in test [7] and 3620 nM in test [8].

These data come from ChEMBL document CHEMBL4024759, “One-Bead-Two-Compound Thioether Bridged Macrocyclic γ-AApeptide Screening Library against EphA2” (J Med Chem, 2017).
